Data taken from patent publication US20060293320A1, “Heteroaryl derivatives for treating viruses” (Genelabs Technologies, Inc., priority 2005, published 2006).

system: HCV replicon I389luc-ubi-neo/NS3-3′/ET in ET (Huh-lucubineo-ET) cell line; experiment: Replicon assay (luciferase reporter); assay type: cell-based; conditions: Hepatitis C virus; tested at 33 μM; ET (Huh-lucubineo-ET) replicon cells, luciferase activity, relative to no compound control; read-out: % inhibition of replication
Procedure: A cell line, ET (Huh-lucubineo-ET) was used for screening of compounds of the present invention for HCV RNA dependent RNA polymerase. The ET cell line was stably transfected with RNA transcripts harboring a I389luc-ubi-neo/NS3-3′/ET; replicon with firefly luciferase-ubiquitin-neomycin phosphotransferase fusion protein and EMCV-IRES driven NS3-5B polyprotein containing the cell culture adaptive mutations (E1202G; T1280I; K1846T) (Krieger at al, 2001 and unpublished). The ET cells were grown in DMEM, supplemented with 10% fetal calf serum, 2 mM Glutamine, Penicillin (100 IU/mL)/Streptomycin (100 μg/mL), 1× nonessential amino acids, and 250 μg/mL G418 (“Geneticin”). They were all available through Life Technologies (Bethesda, Md.). The cells were plated at 0.5-1.0×10^4 cells/well in the 96 well plates and incubated for 24 hrs before adding nucleoside analogs. Then the compounds were added to the cells to achieve a final concentration of 5 or 50 μM. Luciferase activity was measured 48-72 hours later by adding a lysis buffer and the substrate (Catalog number Glo-lysis buffer E2661 and Bright-Glo leuciferase system E2620 Promega, Madison, Wis.). Cells should not be too confluent during the assay. Percent inhibition of replication was plotted relative to no compound control. Under the same condition, cytotoxicity of the compounds was determined using cell proliferation reagent, WST-1 (Roche, Germany). The compounds showing potent antiviral activities, but no significant cytotoxicities were chosen for further evaluation. For these determinations, a 10-point, 2-fold serial dilution for each compound was used which spans a concentration range of 1000 fold. IC50 and TC50 values were calculated by fitting % inhibition at each concentration to the following equation: % inhibition=100%/[(IC50/[I])^b+1] where b is Hill's coefficient.
The % inhibition at a particular concentration was determined using the following equation: % Inhibition=100−[100*(Lum with inhibitor-bg)/(Lum with no inhibitor-bg)] where bg was the background with no replicon cell, and Lum was the luminescence intensity of the reporter luciferase gene.

SMILES | inhibition at 33 µM
Cc1nc(C)c(-c2ccc3cc(-c4c(C5CCCCC5)cc(C(=O)NCC(=O)O)n4CC(=O)N4CCOCC4)ccc3n2)s1 [Compound 33, 2-(4-cyclohexyl-5-(2-(2,4-dimethylthiazol-5-yl)quinolin-6-yl)-1-(2-morpholino-2-oxoethyl)-1H-pyrrole-2-carboxamido)acetic acid] | 17%
Cc1nc(C)c(-c2ccc3cc(-c4c(C5CCCCC5)cc(C(=O)O)n4CC(=O)O)ccc3n2)s1 [Compound 30, 1-(carboxymethyl)-4-cyclohexyl-5-(2-(2,4-dimethylthiazol-5-yl)quinolin-6-yl)-1H-pyrrole-2-carboxylic acid] | 22%
Cc1nc(C)c(-c2ccc3cc(-c4c(C5CCCCC5)cc(C(=O)O)n4CC(=O)OC(C)(C)C)ccc3n2)s1 [Compound 31, 1-((tert-butoxycarbonyl)methyl)-4-cyclohexyl-5-(2-(2,4-dimethylthiazol-5-yl)quinolin-6-yl)-1H-pyrrole-2-carboxylic acid] | 48%
Cc1nc(C)c(-c2ccc3cc(-c4c(C5CCCCC5)cc(C(=O)O)n4CC(=O)N4CCOCC4)ccc3n2)s1 [Compound 32, 4-cyclohexyl-5-(2-(2,4-dimethylthiazol-5-yl)quinolin-6-yl)-1-(2-morpholino-2-oxoethyl)-1H-pyrrole-2-carboxylic acid] | 57%
